Results on six compounds are retold here after US20070248570A1, “Pharmaceutical Compositions Containing Platinum Complexes with Secondary Xanthates and Therapeutic Uses Thereof” (priority 2003, published 2007).

One series relates to SK-OV3. In words: Cytotoxicity on human cancer cells in tissue culture, crystal violet staining. Type of series: cell-based. The method, then: (§1) The anti-tumoral activity of compounds was determined in tissue culture media of pH of 6.8 and 7.4. Cells were incubated for 2 h with the test compounds, followed by 24-96 h incubation with regular, inhibitor free medium of pH 7.4. The substances were serially diluted in tissue culture medium of the desired pH. After incubation, surviving cells were stained with crystal violet and the optical density was measured in an ELISA reader.

In another series the test system is Calu-6. The series is described as above. Type of series: cell-based. The method, then: as §1
The subject of the next series is MCF-7. The description is as above. Format: cell-based. The method, then:
as §1

For another series, the system named is KB. The description is as above. Format: cell-based. The method, then:
as §1

In a further series the test system is SK-MEL-25. The description is as above. Format: cell-based. The method, then: as §1
The test system of the next series is LXF-289. Described as above. Format: cell-based. The method, then:
as §1

Series [1] deals with six human tumor cell lines. Nature of the series: Cytotoxic activity in a panel of six human tumor lines (comparisons and pH quotient). Type of series: cell-based. Conditions: mean ± SD over the human tumor cell lines tested. The method, then:
FIG. 2: Mean quotient of IC50 at pH 7.4/IC50 at pH 6.8 Mean values ±SD of IC50 at pH 7.4/IC50 at pH 6.8 for all six human tumor cell lines tested. IC50at both pH conditions were obtained for four cell lines.
Calu-6 (adenocarcinoma, lung), SK-MEL-25 (melanoma), MCF-7 (mamma carcinoma), LXF-289 (adenocarcinoma, lung), SK-OV -3 (adenocarcinoma, ovary), KB (squameous cell carcinoma, head and neck) were obtained from ATCC and were cultivated according to the instructions of the supplier at 37° C., 5% CO2 atmosphere and 100% relative humidity.
The anti-tumoral activity of compounds was determined in tissue culture media of pH of 6.8 and 7.4. Cells were incubated for 2 h with the test compounds, followed by 24-96 h incubation with regular, inhibitor free medium of pH 7.4. The substances were serially diluted in tissue culture medium of the desired pH. After incubation, surviving cells were stained with crystal violet and the optical density was measured in an ELISA reader. The concentration which was needed to reduce the cell number by 50% (IC50) was determined from dose-response curves for each compound.

The subject of series [2] is human tumors xenotransplanted in nude mice. Particulars: cited from earlier work.
A further series has as its system tumor cells. Particulars: cited from earlier work.
Where [3] appears, read: SK-0V-3, pH 6.8, 2 h incubation, mean of four assays.
[4] abbreviates: SK-0V-3, pH 7.4, 2 h incubation, mean of four assays.
[5] abbreviates: Calu-6, pH 6.8, 2 h incubation, mean of four assays.
Setting [6] is: Calu-6, pH 7.4, 2 h incubation, mean of four assays.
The mark [7] stands for this setting: MCF-7, pH 6.8, 2 h incubation, mean of four assays.
Where [8] appears, read: MCF-7, pH 7.4, 2 h incubation, mean of four assays.
[9] abbreviates: KB, pH 6.8, 2 h incubation, mean of four assays.
The mark [10] stands for this setting: KB, pH 7.4, 2 h incubation, mean of four assays.
The mark [11] stands for this setting: SK-MEL-25, pH 6.8, 2 h incubation, mean of four assays.
The mark [12] stands for this setting: SK-MEL-25, pH 7.4, 2 h incubation, mean of four assays.
Setting [13] is: LXF-289, pH 6.8, 2 h incubation, mean of four assays.
Setting [14] is: LXF-289, pH 7.4, 2 h incubation, mean of four assays.

Regarding `N.N.[Cl][Pt][Cl]` [Cisplatin, cis-dichloro-diammine-platinum(II)], the IC50 (as a rule, the point on the concentration scale where inhibition reaches its midpoint) was 64 ± 0.7 µM in the series with SK-OV3 (setting [3]); 90 ± 2.77 µM with SK-OV3 (setting [4]); 16 ± 1 µM with Calu-6 (setting [5]); 25 ± 5.7 µM in the series with Calu-6 (setting [6]); 108 ± 27 µM in the series with MCF-7 (setting [7]); 160 ± 30 µM in the series with MCF-7 (setting [8]). Also, the IC50 in the series on KB (setting [9]) came to 55 ± 2 µM; in the series with KB (setting [10]), 52 ± 3.3 µM; with SK-MEL-25 (setting [11]), 78 ± 3.3 µM; in the series on SK-MEL-25 (setting [12]) it was 90 ± 25 µM; in the series with LXF-289 (setting [13]), 113 ± 22.3 µM; with LXF-289 (setting [14]), 83 ± 23 µM.
Regarding `CC(C)OC(=S)[S][Pt][S]C(=S)OC(C)C` [Compound 15, Bis(O-isopropyl-dithiocarbonato)platinum(II)], the “Mean quotient of IC50 at pH 7.4/IC50 at pH 6.8” value in series [1] worked out at 2.18±0.49. Further, the IC50 in the series with SK-OV3 (setting [3]) came to 14 ± 2.1 µM; with SK-OV3 (setting [4]) it was 33 ± 8 µM; in the series on Calu-6 (setting [5]), 6 ± 0.6 µM; in the series with Calu-6 (setting [6]), 10 ± 0.6 µM; in the series with MCF-7 (setting [7]), 3 ± 0.9 µM; in the series on MCF-7 (setting [8]) it was 7 ± 3 µM. Further, the IC50 amounted to 6 ± 0.4 µM in the series with KB (setting [9]); 10 ± 0.9 µM with KB (setting [10]); 6 ± 0.4 µM in the series on SK-MEL-25 (setting [11]); 12 ± 1.5 µM with SK-MEL-25 (setting [12]); 10 ± 1.7 µM in the series on LXF-289 (setting [13]); 30 ± 0.4 µM in the series on LXF-289 (setting [14]).
Turning to `COC(=S)[S][Pt][S]C(=S)OC` [r1, Bis(O-methyl-dithiocarbonato)platinum (II)], the IC50 in the series with SK-OV3 (pH 6.8) was found to be 26 ± 2.4 µM; with SK-OV3 (pH 7.4) it was 47 ± 2.9 µM; in the series on Calu-6 (pH 6.8), 11 ± 2.9 µM; in the series on Calu-6 (pH 7.4), 21 ± 5.6 µM; in the series with MCF-7 (pH 6.8), 7 ± 1 µM; with MCF-7 (pH 7.4) it was 19 ± 4.4 µM. For the same compound, the IC50 in the series on KB (pH 6.8) was determined as 20 ± 1 µM; with KB (pH 7.4), 49 ± 2 µM; with SK-MEL-25 (pH 6.8) it was 14 ± 5 µM; with SK-MEL-25 (pH 7.4), 80 ± 25.9 µM; in the series on LXF-289 (pH 6.8), 39 ± 9.5 µM; in the series on LXF-289 (pH 7.4) it was 102 ± 19.3 µM.
Turning to `CCOC(=S)[S][Pt][S]C(=S)OCC` [r2, Bis(O-ethyl-dithiocarbonato)platinum(II)], in series [2] (mouse, in vivo), the “toxicity on kidneys, small intestines and white blood cell count” value is “significantly lower toxicity”. The “anti-tumoral activity on human tumors xenotransplanted in nude mice” value in series [2] (versus cisplatin) is “comparable to cisplatin”. For the same compound, the “cytotoxicity in media of pH 6.8 as compared to pH 7.4” value with tumor cells was “significantly higher cytotoxicity”. For the same compound, the IC50 in the series with SK-OV3 (setting [3]) was found to be 86 ± 3.2 µM; in the series on SK-OV3 (setting [4]) it was 98 ± 16.5 µM; with Calu-6 (setting [5]), 21 ± 3.9 µM; with Calu-6 (setting [6]), 24 ± 0.9 µM; in the series on MCF-7 (setting [7]) it was 12 ± 0.2 µM; in the series on MCF-7 (setting [8]), 47 ± 5.3 µM. Moreover, the IC50 came out at 18 ± 4 µM in the series on KB (setting [9]); 58 ± 5 µM with KB (setting [10]); 21 ± 3 µM with SK-MEL-25 (setting [11]); 56 ± 6.2 µM in the series on SK-MEL-25 (setting [12]); 45 ± 8 µM in the series with LXF-289 (setting [13]); 91 ± 24.9 µM with LXF-289 (setting [14]).
Turning to “Bis(O-cyclobutyl-dithiocarbonato)platinum(II) [Compound 18]”, the IC50 was 17 ± 2.9 µM in the series with SK-OV3 (setting [3]); 19 ± 4.1 µM in the series on SK-OV3 (setting [4]); 3 ± 0.4 µM in the series on Calu-6 (setting [5]); 7 ± 1.2 µM with Calu-6 (setting [6]); 11 ± 0.8 µM in the series with MCF-7 (setting [7]); 21 ± 1 µM in the series with MCF-7 (setting [8]). The IC50 is 6 ± 0.6 µM in the series on KB (setting [9]); 20 ± 2.9 µM in the series with KB (setting [10]); 7 ± 1 µM in the series on SK-MEL-25 (setting [11]); 12 ± 3.7 µM in the series with SK-MEL-25 (setting [12]); 37 ± 1.4 µM in the series on LXF-289 (setting [13]); 44 ± 0.8 µM with LXF-289 (setting [14]).
Turning to “Bis(O-propyl-dithiocarbonato)platinum(II) [r3]”, the IC50 in the series with SK-OV3 (setting [3]) came to 45 ± 27 µM; in the series with SK-OV3 (setting [4]) it was 50 ± 1 µM; in the series with Calu-6 (setting [5]), 7 ± 1.1 µM; with Calu-6 (setting [6]), 21 ± 0.9 µM; in the series on MCF-7 (setting [7]), 4 ± 1 µM; with MCF-7 (setting [8]) it was 9 ± 3 µM. Besides, the IC50 stood at 12 ± 1 µM in the series on KB (setting [9]); 38 ± 3 µM in the series with KB (setting [10]); 10 ± 1.5 µM in the series with SK-MEL-25 (setting [11]); 21 ± 1.9 µM in the series with SK-MEL-25 (setting [12]); 37 ± 9 µM with LXF-289 (setting [13]); 49 ± 5 µM in the series on LXF-289 (setting [14]).
